# Test results taken from patent publication US9920010B2, “CXCR7 receptor modulators” (IDORSIA PHARMACEUTICALS LTD, priority 2013, dated 2018).
# Biological target: T1, CXCR7 (Homo sapiens, UniProt P25106)
# T1 construct: host or cells: CHO-K1 (PathHunter CHO-K1 CXCR7 b-arrestin cell line, stably transfected)
# Experiment: PathHunter CHO-K1 CXCR7 b-arrestin recruitment assay (CXCR7 agonistic activity)
# Assay type: cell-based
# Conditions: PathHunter CHO-K1 CXCR7 b-arrestin cell line
# In short: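 Stable CHO-K1 line with C-terminally ProLink-tagged CXCR7 and β-arrestin 2–EA fusion; β-arrestin recruitment restores β-gal activity, read by chemiluminescence after 1 h RT detection. Cells seeded 24 h, starved in OPTIMEM 3–4 h, exposed to compounds 90 min at 37 °C in HBSS/HEPES/BSA. Geometric-mean EC50 from repeated measurements.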
# T1 sequence (P25106 whole entry): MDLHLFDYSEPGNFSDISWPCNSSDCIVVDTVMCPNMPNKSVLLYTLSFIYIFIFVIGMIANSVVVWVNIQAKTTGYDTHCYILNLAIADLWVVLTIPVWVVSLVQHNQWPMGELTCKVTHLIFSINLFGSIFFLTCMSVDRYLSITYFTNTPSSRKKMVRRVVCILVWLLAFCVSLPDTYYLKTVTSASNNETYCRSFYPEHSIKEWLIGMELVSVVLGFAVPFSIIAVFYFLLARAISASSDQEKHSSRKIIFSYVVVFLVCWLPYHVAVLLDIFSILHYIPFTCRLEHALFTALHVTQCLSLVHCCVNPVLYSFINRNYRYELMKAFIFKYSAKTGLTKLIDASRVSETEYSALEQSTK
# T1 sequence (P32121 whole entry partner): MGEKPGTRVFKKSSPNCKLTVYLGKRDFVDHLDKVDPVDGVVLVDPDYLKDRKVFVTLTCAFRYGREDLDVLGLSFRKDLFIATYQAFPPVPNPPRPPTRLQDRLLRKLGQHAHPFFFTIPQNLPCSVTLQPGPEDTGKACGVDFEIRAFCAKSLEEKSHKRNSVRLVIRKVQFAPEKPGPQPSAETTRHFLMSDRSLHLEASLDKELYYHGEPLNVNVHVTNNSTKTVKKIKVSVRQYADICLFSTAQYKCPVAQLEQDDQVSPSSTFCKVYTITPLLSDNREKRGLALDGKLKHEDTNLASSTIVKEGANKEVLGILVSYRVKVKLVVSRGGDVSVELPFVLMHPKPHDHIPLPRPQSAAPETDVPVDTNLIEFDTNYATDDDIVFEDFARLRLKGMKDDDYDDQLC
row,SMILES,EC50
1,"CN(C)CCN(Cc1ccccc1C(F)(F)F)C(=O)CNc1cccc2c1CCN(CC1(C)COC1)C2 [Example 358, N-(2-Dimethylamino-ethyl)-2-[2-(3-methyl-oxetan-3-ylmethyl)-1,2,3,4-tetrahydro-isoquinolin-5-ylamino]-N-(2-trifluoromethyl-benzyl)-acetamide]",26 nM
2,CNCCN(Cc1ncccc1C(F)(F)F)C(=O)CNc1cccc2c1CCN(C(=O)C(C)(C)C)C2 [compound 415],178 nM
3,"CC1c2cccc(NCC(=O)N(CCN(C)C)Cc3ccccc3C(F)(F)F)c2CCN1CC1CC1 (racemic) [Example 211, rac-2-((2-(Cyclopropylmethyl)-1-methyl-1,2,3,4-tetrahydroisoquinolin-5-yl)amino)-N-(2-(dimethylamino)ethyl)-N-(2-(trifluoromethyl)benzyl)acetamide]",2 nM
4,"COCCN1CCc2c(cccc2NCC(=O)N(CCC(C)(C)O)Cc2ccccc2C(F)(F)F)C1 [Example 304, N-(3-Hydroxy-3-methyl-butyl)-2-[2-(2-methoxy-ethyl)-1,2,3,4-tetrahydro-isoquinolin-5-ylamino]-N-(2-trifluoromethyl-benzyl)-acetamide]",311 nM
5,"CCN1CCc2c(cccc2NCC(=O)N(Cc2ccccc2C(F)(F)F)C2CCN(C)CC2)C1 [compound 137, 2-(2-Ethyl-1,2,3,4-tetrahydro-isoquinolin-5-ylamino)-N-(1-methyl-piperidin-4-yl)-N-(2-trifluoromethyl-benzyl)-acetamide]",45 nM
6,"C/C(=C\c1cccc2c1CCN(C(=O)OC(C)(C)C)C2)C(=O)N(CCN(C)C)Cc1ccccc1C(F)(F)F [Example 97, 5-{(E)-2-[(2-Dimethylamino-ethyl)-(2-trifluoromethyl-benzyl)-carbamoyl]-propenyl}-3,4-dihydro-1H-isoquinoline-2-carboxylic acid tert-butyl ester]",365 nM
7,"CN(C)CCN(CCc1ccccc1)C(=O)CNc1cccc2c1CCN(CC1CC1)C2 [Example 36, 2-(2-Cyclopropylmethyl-1,2,3,4-tetrahydro-isoquinolin-5-ylamino)-N-(2-dimethylamino-ethyl)-N-phenethyl-acetamide]",25 nM
8,CCN1CCc2cccc(OC(C)C(=O)N(CCN(C)C)Cc3ccccc3C(F)(F)F)c2C1 (stereo not shown) [compound 548],133 nM
9,O=C(CNc1cccc2c1CCN(CC1CC1)C2)N(Cc1ccccc1C(F)(F)F)C1CCNC1 (racemic) [compound 381],9 nM
10,"CNCCN(Cc1ncccc1Cl)C(=O)CNc1cccc2c1CCN(CC1CC1)C2 [compound 436, N-(3-Chloro-pyridin-2-ylmethyl)-2-(2-cyclopropylmethyl-1,2,3,4-tetrahydro-isoquinolin-5-ylamino)-N-(2-methylamino-ethyl)-acetamide]",9 nM
11,"CCN1CCc2c(cccc2OCC(=O)N(CCN(C)C)Cc2ccccc2Cl)C1 [compound 171, N-(2-Chloro-benzyl)-N-(2-dimethylamino-ethyl)-2-(2-ethyl-1,2,3,4-tetrahydro-isoquinolin-5-yloxy)-acetamide]",18 nM
12,"CN(C)CCN(Cc1ccccc1)C(=O)CNc1cccc2c1CCN(C(=O)OC(C)(C)C)C2 [Example 8, 5-({[Benzyl-(2-dimethylamino-ethyl)-carbamoyl]-methyl}-amino)-3,4-dihydro-1H-isoquinoline-2-carboxylic acid tert-butyl ester]",230 nM
13,"CNCCN(Cc1ncccc1C(F)(F)F)C(=O)CNc1cccc2c1CCN(C(=O)NC(C)(C)C)C2 [compound 432, 5-({[(2-Methylamino-ethyl)-(3-trifluoromethyl-pyridin-2-ylmethyl)-carbamoyl]-methyl}-amino)-3,4-dihydro-1H-isoquinoline-2-carboxylic acid tert-butylamide]",42 nM
14,"O=C(CNc1cccc2c1CCN(CC1CC1)C2)N(CCN1CCCC(F)(F)C1)Cc1ncccc1C(F)(F)F [Example 283, 2-(2-Cyclopropylmethyl-1,2,3,4-tetrahydro-isoquinolin-5-ylamino)-N-[2-(3,3-difluoro-piperidin-1-yl)-ethyl]-N-(3-trifluoromethyl-pyridin-2-ylmethyl)-acetamide]",11 nM
15,CCN1CCc2cccc(NCC(=O)N(CCN(C)C)Cc3nc(C)cs3)c2C1 [compound 536],92 nM
16,"CCN(CC)CCN(Cc1ccccc1)C(=O)CNc1cccc2c1CN(CC)CC2 [compound 490, N-Benzyl-N-(2-diethylamino-ethyl)-2-(2-ethyl-1,2,3,4-tetrahydro-isoquinolin-8-ylamino)-acetamide]",21 nM
17,CN(C)CCN(Cc1ccc(OC(F)(F)F)cc1)C(=O)CNc1cccc2c1CN(CC1CC1)CC2 [compound 473],102 nM
18,O=C(CNc1cccc2c1CCN(CC1CC1)C2)N(Cc1ccccc1C(F)(F)F)C[C@H]1CCNC1 [compound 380],6 nM
19,"COCCN1CCc2c(CCC(=O)N(CCN(C)C(=O)OC(C)(C)C)Cc3ccccc3C(F)(F)F)cccc2C1 [Example 337, {2-[{3-[2-(2-Methoxy-ethyl)-1,2,3,4-tetrahydro-isoquinolin-5-yl]-propionyl}-(2-trifluoromethyl-benzyl)-amino]-ethyl}-methyl-carbamic acid tert-butyl ester]",429 nM
20,"CN(C)CCN(Cc1ccc(Nc2ccc(F)cc2)cn1)C(=O)CNc1cccc2c1CCN(CC1CC1)C2 [Example 285, 2-(2-Cyclopropylmethyl-1,2,3,4-tetrahydro-isoquinolin-5-ylamino)-N-(2-dimethylamino-ethyl)-N-[5-(4-fluoro-phenylamino)-pyridin-2-ylmethyl]-acetamide]",408 nM
21,"O=C(CNc1cccc2c1CCN(CC1CC1)C2)N(CCC(F)(F)F)Cc1ccccc1C(F)(F)F [Example 224, 2-(2-Cyclopropylmethyl-1,2,3,4-tetrahydro-isoquinolin-5-ylamino)-N-(2-trifluoromethyl-benzyl)-N-(3,3,3-trifluoro-propyl)-acetamide]",52 nM
22,"CN(C)CCN(Cc1cccc(C(F)(F)F)n1)C(=O)CNc1cccc2c1CCN(CC1CC1)C2 [Example 46, 2-(2-Cyclopropylmethyl-1,2,3,4-tetrahydro-isoquinolin-5-ylamino)-N-(2-dimethylamino-ethyl)-N-(6-trifluoromethyl-pyridin-2-ylmethyl)-acetamide]",3 nM
23,"CN(C)CCN(Cc1ccccc1C(F)(F)F)C(=O)CNc1cccc2c1CCN(C1CCOC1)C2 (racemic) [Example 351, rac-N-(2-Dimethylamino-ethyl)-2-[2-(tetrahydro-furan-3-yl)-1,2,3,4-tetrahydro-isoquinolin-5-ylamino]-N-(2-trifluoromethyl-benzyl)-acetamide]",34 nM
24,"CN(CCF)CCN(Cc1ccccc1C(F)(F)F)C(=O)CNc1cccc2c1CCN(CC1CC1)C2 [Example 244, 2-(2-Cyclopropylmethyl-1,2,3,4-tetrahydro-isoquinolin-5-ylamino)-N-{2-[(2-fluoro-ethyl)-methyl-amino]-ethyl}-N-(2-trifluoromethyl-benzyl)-acetamide]",3 nM
25,"CN(C)CCN(Cc1ccccc1Cl)C(=O)CCc1cccc2c1CCN(CC1CC1)C2 [compound 156, N-(2-Chloro-benzyl)-3-(2-cyclopropylmethyl-1,2,3,4-tetrahydro-isoquinolin-5-yl)-N-(2-dimethylamino-ethyl)-propionamide]",1 nM
